These results are taken from doi:10.1101/2023.08.31.555680v1 (biorxiv, 2023).

For test [1], the target named is TsiA-FAST. The following applies: PBS pH […] presumably; details in supplement.
The target of test [2] is RspA-FAST. The following applies: PBS pH […] presumably; details in supplement.
Test [3] has as its target RspA-splitFAST (assembled NC complex; FRB-RspA(N) + FKBP-RspA(C)). As to conditions: read-out: Kd,F/C; […] each FRB-N and FKBP-C preassembled with […] rapamycin.

Turning to `COc1cc(/C=C2\SC(=S)NC2=O)cc(OC)c1O` [HBR-3,5DOM], the values for the Kd in test [1] and in test [2] were 60 nM and 74 nM, respectively. As for `Cc1cc(/C=C2\SC(=S)NC2=O)ccc1O` [HMBR], in test [3], the Kd was 150 ± 10 nM.
